Tests used:
DUSP18 [1] = molecular target: T1, DUSP18 (Homo sapiens, UniProt Q8NEJ0); experiment: in vitro dephosphorylation of Flag-USF1, phospho-immunoblot; format: biochemical; settings: 40 μM Lumacaftor; recombinant GST-DUSP18-His; substrate Flag-USF1 WT
T1 construct: purified human DUSP18 for MST (Methods: cell samples lysed with RIPA buffer); recombinant GST-DUSP18-His for dephosphorylation assay; endogenous in HCT116 and SW480 cells for CETSA
T1 sequence (Q8NEJ0 1-188): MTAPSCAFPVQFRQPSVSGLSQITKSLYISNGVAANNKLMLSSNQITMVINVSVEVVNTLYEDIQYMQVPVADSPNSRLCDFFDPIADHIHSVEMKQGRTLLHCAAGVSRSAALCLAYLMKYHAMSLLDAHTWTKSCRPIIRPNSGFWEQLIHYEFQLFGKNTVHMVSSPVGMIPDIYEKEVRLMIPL

DUSP18 [2] = molecular target: T1, DUSP18; experiment: microscale thermophoresis
Description: microscale thermophoresis on DUSP18 | Kd) value was determined as the binding of Lumacaftor to purified human DUSP18

Kd (DUSP18 [2]): 29.5 ± 3.5 µM
Compound: Cc1ccc(NC(=O)C2(c3ccc4c(c3)OC(F)(F)O4)CC2)nc1-c1cccc(C(=O)O)c1 [Lumacaftor]
in vitro dephosphorylation of Flag-USF1, phospho-immunoblot (DUSP18 [1]): Lumacaftor inhibited the ability of purified DUSP18 to dephosphorylate WT USF1
